Data on one substance can be found in patent US10994016B2, “Graphene oxide mediated cellular delivery of gadolinium-labeled molecules” (Northwestern University, priority 2015, dated 2021).

Data set [1] concerns HeLa cells. Nature of the data set: Cellular delivery studies with and without GO co-incubation, HeLa. It counts as cell-based. How it is done:
ICP-MS Samples were prepared in 15-mL conical tubes by adding ACS reagent grade nitric acid (70%), followed by incubation at 70° C. overnight to allow for complete sample digestion. The effectiveness of this digestion protocol was previously validated for GO. After incubation, a multi-element internal standard (containing Bi, Ho, In, Li, Sc, Tb, and Y, Inorganic Ventures, Christiansburg, Va.) and milli-Q water (18.2 MΩ·cm) were added to produce a final sample of 3% (v/v) nitric acid and 5 ng/mL internal standard.
ICP-MS was performed on a computer-controlled (Plasmalab software) Thermo X series II ICP-MS (Thermo Fisher Scientific, Waltham, Mass., USA) operating in standard mode equipped with an ESI SC-2 autosampler (Omaha, Nebr., USA). Each sample was acquired using 1 survey run (10 sweeps) and 3 main (peak jumping) runs (100 sweeps). The isotopes selected for analysis were Gd with In and Ho isotopes selected as internal standards for data interpolation. Instrument performance is optimized daily through an autotune followed by verification via a performance report (passing manufacturer specifications). Instrument calibration was accomplished by preparing individual-element Gd standards (Inorganic Ventures, Christiansburg, Va., USA) using concentrations of 0.78125, 1.5625, 3.125, 6.25, 12.50, 25.00, 50.00, 100.0, and 200.0 ng/mL containing 3.0% nitric acid (v/v) and 5.0 ng/mL of multi-element internal standard.
Dulbecco's modified phosphate buffered saline (DPBS), media, and dissociation reagents were purchased from Life Technologies (Carlsbad, Calif.). CorningBrand® cell culture consumables (flasks, plates, etc.) and sera were purchased from VWR Scientific (Radnor, Pa.). HeLa cells (ATCC® CCL-2™) and KB cells (ATCC® CCL-17™) were purchased from the American Type Culture Collection (ATCC, Manassas, Va.) and cultured in phenol red-free minimum essential media (MEM) supplemented with 10% fetal bovine serum (FBS). Prior to all experiments, cells were plated and allowed to incubate for 24 hours before dosing. Cells were harvested with 0.25% TrypLE for 5 minutes at 37° C. in a 5.0% CO2 incubator. For sterilization, all Gd(III)-labeled molecules were filtered with 0.2 μm sterile filters prior to concentration determination and storage at 4° C. GO was used as prepared without further sterilization. […] Cells were grown in a humidified incubator operating at 37° C. and 5.0% CO2.
(§1) Cell counting was conducted using a Guava EasyCyte Mini Personal Cell Analyzer (EMD Millipore, Billerica, Mass.). After cell harvesting, an aliquot (50 μL) of the cell suspensions was mixed with Guava ViaCount reagent (150 μL) and allowed to stain at room temperature for at least 5 minutes. The dilution factor of 4 was determined based upon optimum machine performance (20-150 cells/μL). After vortexing for 10 sec, stained cells were counted using a Guava EasyCyte Mini Personal Cell Analyzer (PCA) using the ViaCount software module. For each sample, 1000 events were acquired. Gating of live/dead and cell/debris classifications were performed manually by the operator.
Cellular delivery studies were performed with HeLa and KB cells. HeLa and KB were plated at a cell density of approximately 25,000 and 50,000 cells per well, respectively, in a 24-well plate as counted by a hemocytometer. Stock solutions of 1-14 (1 mM), 150 nm GO (100 μg/mL), and 1500 nm GO (100 μg/mL) were prepared using sterile Milli-Q water. Prior to dosing, 80 μL ([…]) of each GO (150 nm and 1500 nm) and 80 μL (80 nmol) of each Gd(III)-labeled molecule (1-14) were mixed and allowed to adsorb for at least 15 minutes. 150 μL Gd(III)-GO solutions were added to 250 μL media to give a final concentration of 188 μM Gd and 18.8 μg/mL GO. Cells were incubated with the mixture of Gd(III)-labeled molecules and GO for […]. To harvest, cells were rinsed in-plate three times with 500 μL PBS and trypsinized using 100 μL 0.25% TrypLE. […]

Data set [2] relates to HeLa cells. Nature of the data set: 24 hour cytotoxicity assay (Guava ViaCount). The data set is classed as cell-based. To be noted: for IC50: read-out: IC50 (viability). Here is the method:
FIG. 11. 24 hour cytotoxicity assay using HeLa cells at increasing Magnevist and GO concentrations. […] The maximum GO dose required for cellular delivery enhancement is 20 μg/mL, or an order of magnitude below the highest test dose. The 150 nm GO was used for the study.
FIGS. 12A-B. Cytotoxicity of Magnevist. A) Viability of HeLa cells at increasing Magnevist concentration as measured by the Guava ViaCount Assay. Analysis includes floating cells at the end of the 24-hr incubation period. The fitted IC50 was 80 mM. […] Fitting was performed using GraphPad Prism software. All incubations were performed for 24 hours. Error bars show SD.
as §1

Read-outs that look alike come from different tables or passages of the source.

For orientation: IC50 means the concentration needed to halve the response being measured. For the substance “Diethylenetriaminepentaacetic acid gadolinium(III) dihydrogen salt hydrate [Molecule 11]”, the “Enhancement by GO” value in the data set with HeLa cells [1] (35 mM Magnevist, 20 μg/mL GO, 24-well plates) stood at 3.3 ×; with HeLa cells [1] (6-well plates), 3.1 ×. Moreover, the “Delivery enhancement without adsorption time” value in the data set with HeLa cells [1] (150 nm GO, mixture added directly to media) is recorded as “abolished”; in the data set with HeLa cells [1] (1500 nm GO, 188 μM Gd(III), 18.8 μg/mL GO), “same result”. Besides, the Magnevist uptake in the data set on HeLa cells [1] (with GO, 35 mM Magnevist, 20 μg/mL GO (150 nm), 17 trials) stood at 515±319 fmol Gd/cell; with HeLa cells [1] (without GO, 35 mM Magnevist, 10 trials), 115±32 fmol Gd/cell. Also, the “Typical cellular Gd(III) content” value was 299±67 fmol/cell with HeLa cells [1] (with GO, 35 mM Magnevist, 20 μg/mL GO, 24-well plates, N=11) and 91±9 fmol/cell in the data set on HeLa cells [1] (without GO, 35 mM Magnevist, 24-well plates, N=4). The “Loading (cellular Gd(III) content)” value in the data set on HeLa cells [1] (with GO, 6-well plates, N=13) is reported as 151±56 fmol/cell; with HeLa cells [1] (without GO, 6-well plates, N=4) it was 49±19 fmol/cell. Besides, the IC50 is 99 mM with HeLa cells [2] (24 h, after in-plate washing by PBS, floating cells not included) and 80 mM in the data set on HeLa cells [2] (24 h, analysis includes floating cells). Also, the Cytotoxicity entry with HeLa cells [2] (24 h, up to 35 mM Magnevist and 250 μg/mL GO (150 nm GO)) was “No significant cytotoxicity”; with HeLa cells [2] (Magnevist increased to 70 mM, with GO), “synergistic cytotoxicity”.
